Source: patent US11366114B2, “Genetically encoded fluorescent sensors for detecting ligand bias and intracellular signaling through cAMP pathways” (MONTANA MOLECULAR LLC, priority 2013, dated 2022)

Assays:
cAMP = assay: Fluorescence response of cAMP sensors to isoproterenol in HEK 293 cells co-expressing the beta adrenergic receptor; assay type: cell-based, human; conditions: for Relative Change in Fluorescence: in response to isoproternol; for dF/F: relative fluorescence response to isoproternol
Description: To test the functionality of these 28 prototype sensors, each construct was co-expressed with the beta adrenergic receptor, which couples to the Gs signaling pathway when activated by isoproteronol, in HEK 293 cells, and the fluorescence measured as described below. Briefly, 96-well glass-bottom plates were coated with Poly-D-Lysine (Fisher Scientific, Pittsburgh, Pa.) and HEK 293 were seeded and cultured in EMEM (ATCC, Manassas, Va.) supplemented with 10% fetal bovine serum and Penicillin-Streptomycin at 37 […] and 30 ng of beta adrenergic receptor per well, using Lipofectamine 2000 Transfection Reagent (Life Technologies, Grand Island, N.Y.) according to the manufacturer's protocol, and incubated for 24-48 hours at 37° C. in 5% CO2.
Prior to screening transfected cells for fluorescence, he EMEM culture medium was removed and 1×DPBS added to each well. A Zeiss Axiovert S100TV inverted microscope equipped with computer controlled excitation/emission filter wheels, shutters, and a Qimaging Retiga Exi CCD camera (Surrey, BC Canada) was used to image cells at 25e A) supplemented with 10% fetal bovine serum and Penicillin-Streptomycin at 37hn filters were used to resolve the green fluorescence from the cAMP sensors. Cells were analyzed for increases or decreases in fluorescence intensity upon addition of isoproternol, DMSO, forskolin and IBMX. To analyze the image stacks, background fluorescence was defined as a region of the image that contained no cells. The average value of this region was subtracted frame by frame from the measurements of the mean pixel values of the fluorescent cells. Fluorescence intensity data was plotted and analyzed with IGOR (Wavemetrics, Oswego, Oreg.).
For transient expression and screening in an automated fluorescence plate reader, HEK 293T cells were cultured in Corning Co-Star Polystyrene 96-well plates coated with Poly-D-Lysine. HEK293T cells were plated at 35,000 cells/well in 100 μl growth medium per well without antibiotics so that the cells would be 90-95% confluent at the time of transfection (approximately 24 hours later). For each transfection (i.e. one well in a 96-well plate), 160 ng of plasmid DNA (120 ng sensor+40 ng receptor) was diluted in […] and then the mixture was replaced with fresh medium. Prior to scanning a plate on the Biotek Synergy Mx, EMEM culture medium was replaced with 250 μl of 1×DPBS per well. Plates were read at 25° C., using monochromators set to 488/20 nm excitation and 530/20 nm emission to resolve the green fluorescence from the cAMP sensor.

[1] = target: T1, G-protein coupled calcitonin receptor (Homo sapiens, UniProt P30988); assay: Multiplexing of cAMP sensor with DAG sensor, calcitonin response curves; assay type: cell-based
T1 sequence (P30988 25-474): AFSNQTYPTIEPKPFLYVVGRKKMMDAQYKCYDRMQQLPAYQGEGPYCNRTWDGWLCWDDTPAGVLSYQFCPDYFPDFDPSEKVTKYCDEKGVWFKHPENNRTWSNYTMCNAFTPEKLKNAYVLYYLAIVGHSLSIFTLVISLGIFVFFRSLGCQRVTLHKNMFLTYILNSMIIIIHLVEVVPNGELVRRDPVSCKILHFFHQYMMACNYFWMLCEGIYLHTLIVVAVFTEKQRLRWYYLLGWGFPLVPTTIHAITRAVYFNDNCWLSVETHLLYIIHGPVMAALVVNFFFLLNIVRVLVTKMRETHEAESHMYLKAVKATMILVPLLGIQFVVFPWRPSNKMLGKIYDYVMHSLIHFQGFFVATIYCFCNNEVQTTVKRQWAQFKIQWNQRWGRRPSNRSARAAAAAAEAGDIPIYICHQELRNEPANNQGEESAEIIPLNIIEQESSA
Source text: FIG. 6 Multiplexing of a cAMP biosensor based on a single fluorescent protein with a second biosensor of a different color. The G-protein coupled calcitonin receptor was stimulated with different amounts of calcitonin (shown on the X axis) to produce response curves for a red cAMP and a green DAG sensor. The Y axis on the right indicates cAMP response. The Y axis on the left indicates DAG response.
The ability of cAMP sensor proteins of the present invention to be multiplexed with other fluorescence based sensors was tested. Briefly, cells were co-transfected with expression vector expressing a cAMP sensor protein of the present invention comprising a green fluorescent protein, and a DAG biosensor comprising a red fluorescent protein. The cells were cultured, treated with isoptroterenol and the resulting fluorescence measured as described in Example 1A. The results of this study are show in FIG. 6.

[2] = HEK 293 cells, beta adrenergic receptor co-expressed

Substance	Relative Change in Fluorescence (cAMP)	dF/F (cAMP; [2])	G-protein pathways stimulated (cAMP sensor / DAG sensor) ([1]; higher concentrations)	G-protein pathways stimulated (cAMP sensor / DAG sensor) ([1]; low concentrations)	dF/F (cAMP; only cell of the column printed with %)
EcpG9: prototype cAMP sensor, cpEGFP in Epac2 at L457; SEQID 30 in Table 1, SEQ ID NO: 31 in Table 3	13%	13	–	–	–
calcitonin	–	–	two different G-protein pathways have been activated	can stimulate just one G-protein pathway	–
EcpG18: prototype cAMP sensor, cpEGFP in Epac2 at A486; SEQID 32 in Table 1, SEQ ID NO: 33 in Table 3	12%	12	–	–	–
EcpG24: prototype cAMP sensor, cpEGFP in Epac2 at A520; SEQID 33 in Table 1, SEQ ID NO: 34 in Table 3	−11%	−11	–	–	–
EcpG23: prototype cAMP sensor, cpEGFP in Epac2 at L518; SEQID 29 in Table 1, SEQ ID NO: 30 in Table 3	−16%	−16	–	–	–
EcpG22: prototype cAMP sensor, cpEGFP in Epac2 at V341; SEQID 31 in Table 1, SEQ ID NO: 32 in Table 3	−14%	–	–	–	−14%
EcpG13: prototype cAMP sensor, cpEGFP in Epac2 at E461; SEQID 28 in Table 1, SEQ ID NO: 29 in Table 3	−22%	−22	–	–	–
EcpG12: prototype cAMP sensor, cpEGFP in Epac2 at V460; SEQID 11 in Table 1, SEQ ID NO: 12 in Table 3	−36%	−36	–	–	–
EcpG15: prototype cAMP sensor, cpEGFP in Epac2 at N463; SEQID 17 in Table 1, SEQ ID NO: 18 in Table 3	34%	34	–	–	–
EcpG10: prototype cAMP sensor, cpEGFP in Epac2 at R458; SEQID 25 in Table 1, SEQ ID NO: 26 in Table 3	−30%	−30	–	–	–
EPAC2gfpRAP1B: cpEGFP tethered between Epac2 and Rap1B; SEQID 27 in Table 1, SEQ ID NO: 28 in Table 3	26%	–	–	–	–
